Data taken from PubChem BioAssay (NCI).
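Exposure lasted 48 hours, with cells grown in 96-well plates and compounds tested at five concentrations. GI50 is the concentration that inhibits growth by half. TGI: concentration producing complete growth inhibition.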

What was measured:
Assay in all cases: NCI anticancer screen, dose series, 48 h
KM12 colon = test system: KM12 colon
A549 NSCLC = test system: A549 NSCLC
SF-539 CNS = test system: SF-539 CNS
HCC-2998 colon = test system: HCC-2998 colon
UACC-257 melanoma = test system: UACC-257 melanoma
SK-MEL-5 melanoma = test system: SK-MEL-5 melanoma
OVCAR-5 ovarian = test system: OVCAR-5 ovarian
NCI-H23 lung = test system: NCI-H23 lung
SK-OV-3 ovarian = test system: SK-OV-3 ovarian
HOP-62 NSCLC = test system: HOP-62 NSCLC

| SMILES | GI50 (KM12 colon) [µM] | TGI (KM12 colon) [µM] | GI50 (A549 NSCLC) [µM] | TGI (A549 NSCLC) [µM] | GI50 (SF-539 CNS) [µM] | TGI (SF-539 CNS) [µM] | GI50 (HCC-2998 colon) [µM] | TGI (HCC-2998 colon) [µM] | GI50 (UACC-257 melanoma) [µM] | TGI (UACC-257 melanoma) [µM] | GI50 (SK-MEL-5 melanoma) [µM] | TGI (SK-MEL-5 melanoma) [µM] | GI50 (OVCAR-5 ovarian) [µM] | TGI (OVCAR-5 ovarian) [µM] | GI50 (NCI-H23 lung) [µM] | TGI (NCI-H23 lung) [µM] | GI50 (SK-OV-3 ovarian) [µM] | TGI (SK-OV-3 ovarian) [µM] | GI50 (HOP-62 NSCLC) [µM] | TGI (HOP-62 NSCLC) [µM] |
| --- | --- | --- | --- | --- | --- | --- | --- | --- | --- | --- | --- | --- | --- | --- | --- | --- | --- | --- | --- | --- |
| Clc1nc(Cl)c2c(ncn2C/C=C\Cn2cnc3c(Cl)nc(Cl)nc32)n1 | 1.82 | 3.41 | 2.38 | 5.99 | 2.38 | 5.46 | 1.5 | 3.05 | 1.48 | 5.9 | 1.31 | 2.79 | 1.96 | 3.74 | 1.72 | 3.93 | 2.48 | 9.07 | 2.35 | 5.21 |
| CC(=O)c1cc([N+](=O)[O-])ccc1OCC(=O)O |  | > 100 |  | > 100 |  | > 100 |  | > 100 |  | > 100 |  | > 100 |  | > 100 |  | > 100 |  | > 100 |  | > 100 |
| Cn1ccnc1C(=O)/C=C/c1ccc(CC(=O)Nc2ccccc2)cc1 | 3.39 | 8.17 | 6.6 | > 25 | 2.43 | 7.52 | 4.42 | 8.96 | 6.98 | 21.1 | 4.18 | 7.9 | 4.19 | 14.7 | 3.24 | 11.3 | 9.3 | > 25 | 3.75 | 20.8 |
| Nc1cc(N)c(N)cc1N | 2.88 | 10.7 | 2.06 | 4.51 | 2.17 | 5.88 | 13.4 | 27.9 | 1.55 | 3.05 | 0.736 | 2.02 | 2.18 | 4.99 | 1.67 | 4.1 | 7.12 | 42.2 | 1.76 | 3.35 |
| O=C(O)c1cc(=O)c2[nH]c3ccccc3c2s1 |  | > 100 |  | > 100 |  |  |  | > 100 |  | > 100 |  | > 100 |  | > 100 |  | > 100 |  | > 100 |  | > 100 |
| Cc1ccc(NC(=O)/C(=N\Nc2ccc([N+](=O)[O-])cc2[N+](=O)[O-])C2C(=O)NC(=O)NC2=O)cc1 |  | > 100 |  | > 100 |  | 90.9 |  |  |  | > 100 |  | > 100 |  | > 100 |  | > 100 |  | > 100 |  | > 100 |
| CCC12CCCC(=O)N1C(CO)C(c1ccccc1)O2 (stereo not drawn) |  | > 100 |  | > 100 |  | > 100 |  |  |  | > 100 |  | > 100 |  | > 100 |  | > 100 |  |  |  | > 100 |
| CO/N=C(\C)c1ccc(Nc2cc(-c3ccccc3)nc3c(O)cccc23)cc1 |  |  | 12.8 | 28.9 | 17.6 | 32.1 | 22.1 | 37.1 | 15.9 | 32.3 | 23.9 | 91.4 | 18.7 | 33.4 | 14.9 | 30.6 | 18.8 | 35.5 | 17.6 | 34.8 |
| CC(C)NC(=O)OCCS(=O)c1c(Cl)c(Cl)nn1C (stereo not drawn) |  | > 100 |  | > 100 |  | > 100 |  |  |  |  |  | > 100 |  | > 100 |  | > 100 |  | > 100 |  | > 100 |
| CCCCCCCCCc1cc(=O)c2ccc(O)cc2o1 |  | > 100 |  | > 100 |  | > 100 |  |  |  | > 100 |  | > 100 |  | > 100 |  | > 100 |  | > 100 |  | > 100 |
| CC1=C(O)C(=O)C2C(=O)C1C(C)C2c1ccc(Cl)cc1 (stereo not drawn) |  | > 100 |  | > 100 |  | > 100 |  | > 100 |  |  |  | > 100 |  | > 100 |  | > 100 |  | > 100 |  | > 100 |
| COc1c(N2CCN(CN3C(=O)C(=Nc4ccc(S(=O)(=O)Nc5ncccn5)cc4)c4ccccc43)C(C)C2)c(F)cc2c(=O)c(C(=O)O)cn(C3CC3)c12 (stereo not drawn) | 40.8 | > 50 | > 50 | > 50 | > 50 | > 50 |  |  | 47 | > 50 | 20.2 | > 50 | > 50 | > 50 | 19.8 | > 50 |  |  |  |  |
| CCCCCCCCCCCC[n+]1ccc(CCCCCCCCC)cc1 |  |  |  |  |  |  |  |  |  |  |  |  |  |  | 0.39 | 1.79 | 1.51 | 2.89 | 1.41 | 2.9 |
| COc1cccc(C(=O)C2C(=O)N(C)CCc3ccccc32)c1OC (stereo not drawn) |  | > 100 |  | > 100 |  |  |  |  |  | > 100 |  | > 100 |  |  |  | > 100 |  | > 100 |  | > 100 |
| CSc1nc2c(nc(N)n2C2OCC(O)C(O)C2O)c(=O)n1C (stereo not drawn) |  | > 100 |  | > 100 |  | > 100 |  | > 100 |  | > 100 |  | > 100 |  |  |  | > 100 |  | > 100 |  | > 100 |
| CC(=O)Oc1ccc(O)c(O)c1C/C=C(\C)CC/C=C(\C)CC/C=C(\C)CCC=C(C)C |  | 11.5 |  | 1.55 |  | 1.62 |  | 2.26 |  | 2.26 |  |  |  | 1.89 |  | 1.47 |  |  |  | 2.81 |
| CN(C)CCOc1ccc2c(c1)C/C(=C/c1ncc([N+](=O)[O-])n1C)C2=O |  | 11.6 |  | 7.74 |  | 21.2 |  |  |  | 14.7 |  | 3.49 |  | 14.8 |  | 4.94 |  | 15 |  | 11.4 |
| NC(C(=O)[O-])C(=O)[O-].NC1CCCCC1N.[Pt+4] | 12.5 | > 100 | 2.63 | > 100 | 5.36 | > 100 |  |  | > 100 | > 100 | 1.84 | 12 | 2.64 | > 100 | 13.9 | > 100 | 13.2 | > 100 | 8.45 | > 100 |
| COc1cc(CNc2ccc(C(C)C)cc2)cc(OC)c1OC |  | 34.9 |  | 34.2 |  | 35.8 |  |  |  | 61.7 |  | 27.9 |  | 69.9 |  | 45.5 |  | 46.2 |  | 55.1 |
| O=C1/C(=C/c2ccc(O)cc2)COc2ccc(-c3ccccc3)cc21 | 2.28 | 7.54 | 13.2 | 49.6 | 13.9 | 27 | 4.08 | 11.2 |  |  | 8.67 | 22.9 | 17.8 | 33.8 | 12.4 | 29.6 | 21.4 | 46.1 | 19.3 | 36.4 |
